Where two headings read alike, the source gives them in different places. Each block holds one compound with its values, some of them ahead of it.
Assays:
[1] = target: hURAT1 (Homo sapiens (Human), UniProt Q96S37); experiment: In vitro inhibition of 14C-uric acid absorption in HEK-293T cells stably expressing hURAT1; type: cell-based
Procedure: It was to test the in vitro inhibitory activity (IC50) of the compound on hURAT1.
The culture medium included: a DMEM culture medium+10% of fetal calf serum+500 μg/ml G418+1% of P/S. • (2) When the cells grew to 80% full, the culture medium was removed, PBS was added to clean the cells once, and then pancreatin-EDTA was added for digestion. The culture medium was added when the cells were subjected to wall removal, and subjected to blowing and beating to make the cells fall off. The cells were centrifuged and collected. The culture medium was added, and subjected to blowing and beating to form cell suspension. • (3) The cell density was adjusted to be 7×10^5/ml, then the cells were inoculated into a 96-well cell culture plate with white wall and transparent bottom according to the amount of 100 μL/well, and cultured for 12-24 h.
3.3 Preparation of compounds • (1) The compound was prepared into a mother solution with a concentration of 20 mM by DMSO, the mother solution was diluted to reach a concentration of 1 mM by DMSO, and then the solution was added into 96 wells. • (2) Quality control compounds were additionally arranged on the 96-well plate, so as to obtain a 100 x compound plate. • (3) The solutions in corresponding wells of another 96-well plate were diluted 50 times by the Cl-free HBSS buffer solution, so as to obtain a 2 x compound plate (plate 2). • (4) A buffer solution containing 0.1 μCi/ml 14C-uric acid at a density of 30 μL/well and a 2 x diluted compound at a density of 30 μL/well into a new 96-well plate, so as to obtain a 1 x compound plate (plate 1) for later use.
3.4 Absorption of ^14C-uric acid in cells stably expressing hURAT1 • (1) An absorption test may be performed after cells in the 96-well plate were cultured and adhered to the wall. • (2) The cells were washed once by the preheated buffer solution at a density of 200 μL/well. • (3) The cells in each well were completely absorbed, and then the corresponding compounds and 0.1 μCi/ml 14C-uric acid solution were immediately added at a density of 50 μL/well. • (4) The plate added with the compounds was incubated in an incubator at 37° C. for 5 min. • (5) 150 μL of ice-cold buffer solution was immediately added into each well to stop absorption. Each well was washed for three times with the buffer solution.

[2] = test system: rat model of hyperuricemia; experiment: Rat model of hyperuricemia induced by oteracil potassium and hypoxanthine; type: in vivo; details: P<0.05
Procedure: Oteracil potassium was combined with hypoxanthine to induce a rat model of hyperuricemia for effective dose exploration and dose-effect relationship research. Oteracil potassium feed was adopted for feeding to induce the rat model of hyperuricemia for time-effect relationship, pathological state-based functional mechanism confirmation, and PK-PD researches.
In the experiment, the rat model of hyperuricemia was prepared by intragastric administration of hypoxanthine and intraperitoneal injection of oteracil potassium. The single intragastric administration dose of the compound shown in Formula 1 was set to be 5 mg/kg, 10 mg/kg, 20 mg/kg, and 40 mg/kg. The single intragastric administration dose of Lesinurad in the positive control groups was set to be 10 mg/kg, 20 mg/kg, 40 mg/kg, and 80 mg/kg. […] Moreover, the compounds had no significant effect on the renal coefficient, further verifying the good safety of this product at the effective dose.

[3] = target: OAT4 (Homo sapiens (Human), UniProt Q9NSA0); experiment: Inhibitory effect on transporter OAT4
Procedure: (§1) The IC50 of compounds on URAT1, OAT1, OAT3, and OAT4 was tested, thereby providing research data for clinical application and further development of drugs.

[4] = target: OAT1 (Homo sapiens (Human), UniProt Q4U2R8); experiment: Inhibitory effect on transporter OAT1
Procedure: as §1

[5] = target: OAT3 (Homo sapiens (Human), UniProt Q8TCC7); experiment: Inhibitory effect on transporter OAT3
Procedure: as §1

[6] = curve-fit parameter, hURAT1 inhibition, superscript 1 = plate1, 2 = plate2

Sequence of hURAT1 (Q96S37 whole entry): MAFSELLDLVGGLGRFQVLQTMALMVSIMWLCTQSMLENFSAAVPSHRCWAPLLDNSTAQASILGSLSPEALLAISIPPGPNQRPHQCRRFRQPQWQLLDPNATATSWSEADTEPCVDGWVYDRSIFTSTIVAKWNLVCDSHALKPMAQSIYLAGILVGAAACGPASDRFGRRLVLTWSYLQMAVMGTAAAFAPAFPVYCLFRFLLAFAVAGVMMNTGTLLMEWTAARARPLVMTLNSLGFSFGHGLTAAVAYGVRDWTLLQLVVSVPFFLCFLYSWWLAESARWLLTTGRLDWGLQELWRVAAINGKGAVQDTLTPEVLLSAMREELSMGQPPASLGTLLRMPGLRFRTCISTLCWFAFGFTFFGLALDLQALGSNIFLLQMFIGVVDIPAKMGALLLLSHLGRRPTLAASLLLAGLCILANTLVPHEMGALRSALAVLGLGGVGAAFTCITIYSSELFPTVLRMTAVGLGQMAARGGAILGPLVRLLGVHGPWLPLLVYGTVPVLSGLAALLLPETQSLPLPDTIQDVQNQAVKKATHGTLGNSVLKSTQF
Sequence of OAT1 (Q4U2R8 whole entry): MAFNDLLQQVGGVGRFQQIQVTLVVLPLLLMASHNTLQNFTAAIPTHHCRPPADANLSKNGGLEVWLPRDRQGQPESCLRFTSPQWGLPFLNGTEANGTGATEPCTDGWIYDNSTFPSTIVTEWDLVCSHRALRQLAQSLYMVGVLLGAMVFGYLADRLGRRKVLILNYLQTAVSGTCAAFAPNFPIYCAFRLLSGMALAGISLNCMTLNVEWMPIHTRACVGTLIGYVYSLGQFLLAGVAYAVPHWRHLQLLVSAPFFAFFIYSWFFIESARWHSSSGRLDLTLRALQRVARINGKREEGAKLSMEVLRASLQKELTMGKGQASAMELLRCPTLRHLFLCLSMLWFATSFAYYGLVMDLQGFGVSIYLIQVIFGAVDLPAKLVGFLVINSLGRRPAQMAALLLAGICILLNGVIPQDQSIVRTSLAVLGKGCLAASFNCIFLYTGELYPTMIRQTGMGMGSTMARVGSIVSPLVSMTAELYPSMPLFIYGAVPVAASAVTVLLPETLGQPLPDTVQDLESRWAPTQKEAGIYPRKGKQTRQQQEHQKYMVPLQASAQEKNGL
Sequence of OAT4 (Q9NSA0 whole entry): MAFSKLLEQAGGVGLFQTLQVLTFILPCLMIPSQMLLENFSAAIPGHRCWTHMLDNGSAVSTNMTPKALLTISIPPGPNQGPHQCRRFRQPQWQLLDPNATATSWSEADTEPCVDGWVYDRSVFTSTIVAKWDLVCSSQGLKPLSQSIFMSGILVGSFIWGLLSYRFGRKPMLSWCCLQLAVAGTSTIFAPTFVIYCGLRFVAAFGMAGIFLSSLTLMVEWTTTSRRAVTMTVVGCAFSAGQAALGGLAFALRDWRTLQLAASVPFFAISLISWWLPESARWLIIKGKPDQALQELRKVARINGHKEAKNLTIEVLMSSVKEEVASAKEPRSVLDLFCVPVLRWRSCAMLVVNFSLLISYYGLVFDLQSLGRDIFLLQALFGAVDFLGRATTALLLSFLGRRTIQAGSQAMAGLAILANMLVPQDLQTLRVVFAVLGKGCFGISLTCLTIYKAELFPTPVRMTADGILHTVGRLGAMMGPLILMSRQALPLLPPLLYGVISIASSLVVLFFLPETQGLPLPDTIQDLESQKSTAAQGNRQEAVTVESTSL
Sequence of OAT3 (Q8TCC7 whole entry): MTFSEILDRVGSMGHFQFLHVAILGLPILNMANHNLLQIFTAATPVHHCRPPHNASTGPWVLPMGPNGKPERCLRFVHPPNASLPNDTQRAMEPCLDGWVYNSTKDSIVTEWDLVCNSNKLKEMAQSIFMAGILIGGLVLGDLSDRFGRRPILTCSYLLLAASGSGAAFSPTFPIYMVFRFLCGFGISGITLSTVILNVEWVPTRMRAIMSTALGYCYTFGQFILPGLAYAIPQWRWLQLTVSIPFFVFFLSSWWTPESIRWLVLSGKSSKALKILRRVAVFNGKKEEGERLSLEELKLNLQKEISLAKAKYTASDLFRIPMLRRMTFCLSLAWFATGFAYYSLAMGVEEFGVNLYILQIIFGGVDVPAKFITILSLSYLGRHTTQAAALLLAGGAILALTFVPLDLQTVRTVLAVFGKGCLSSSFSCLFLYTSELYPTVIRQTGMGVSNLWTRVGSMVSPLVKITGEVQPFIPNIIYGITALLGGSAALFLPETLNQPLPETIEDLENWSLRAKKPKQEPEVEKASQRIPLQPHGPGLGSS

- BOTTOM [1, 6]: 0.00
- HILLSLOPE [1, 6]: 0.75
- TOP [1, 6]: 96.94
- IC50 ([1]; hURAT1, HEK-293T, 14C-uric acid, 5 min at 37° C., superscript 1 = plate1, 2 = plate2): 0.0545 µM
SMILES: CC(C)(Sc1ccncc1-c1ccc(C#N)c2ccccc12)C(=O)O [Verinuard, Verinurad]

- renal coefficient ([2]; rats, single intragastric dose 80 mg/kg): increased significantly
SMILES: O=C(O)CSc1nnc(Br)n1-c1ccc(C2CC2)c2ccccc12 [Lesinurad]
- serum uric acid level ([2]; model rats, single intragastric dose 40 mg/kg, vs model control group): significantly reduce

- inhibitory effect on drug transporter OAT4 (in words) [3]: a certain inhibitory effect
SMILES: CCCN(CCC)S(=O)(=O)c1ccc(C(=O)O)cc1 [Probenecid]

- BOTTOM [1]: 6.1
- HILLSLOPE [1]: 1.20
- TOP [1]: 99.1
SMILES: CCc1oc2ccccc2c1C(=O)c1cc(Br)c(O)c(Br)c1 [Benzbromarone]

- IC50 [4]: 12.7 µM
- IC50 [5]: > 100 µM
SMILES: CC(C)(Sc1ccnc2ccc(C(F)(F)F)cc12)C(=O)NS(C)(=O)=O [D]

— patent publication US20240116873A1, “QUINOLINE MERCAPTOACETATE SULFONAMIDE DERIVATIVE, INTERMEDIATE, PHARMACEUTICAL DERIVATIVE OR FORMULATION, AND PREPARATION METHOD AND USE THEREFOR” (JIANGSU CHIATAI QINGJIANG PHARMACEUTICAL CO., LTD., priority 2022, published 2024)
